Drawing on patent publication US11555012B2 (Nimbus Artemis, Inc., priority 2018, dated 2023), this text covers IC50 for 40 compounds.

pIC50: −log10 of the molar value. Read-outs that look alike come from different tables or passages of the source.

This test addresses ACL (Homo sapiens (Human), UniProt P53396). Kind of test: ADP-Glo Assay. A general note: ADP-Glo turns the ADP formed in a reaction into a luminescent signal.

Sequence of ACL (P53396 other isoform, or with tags, fused parts or gaps isoform P53396-2): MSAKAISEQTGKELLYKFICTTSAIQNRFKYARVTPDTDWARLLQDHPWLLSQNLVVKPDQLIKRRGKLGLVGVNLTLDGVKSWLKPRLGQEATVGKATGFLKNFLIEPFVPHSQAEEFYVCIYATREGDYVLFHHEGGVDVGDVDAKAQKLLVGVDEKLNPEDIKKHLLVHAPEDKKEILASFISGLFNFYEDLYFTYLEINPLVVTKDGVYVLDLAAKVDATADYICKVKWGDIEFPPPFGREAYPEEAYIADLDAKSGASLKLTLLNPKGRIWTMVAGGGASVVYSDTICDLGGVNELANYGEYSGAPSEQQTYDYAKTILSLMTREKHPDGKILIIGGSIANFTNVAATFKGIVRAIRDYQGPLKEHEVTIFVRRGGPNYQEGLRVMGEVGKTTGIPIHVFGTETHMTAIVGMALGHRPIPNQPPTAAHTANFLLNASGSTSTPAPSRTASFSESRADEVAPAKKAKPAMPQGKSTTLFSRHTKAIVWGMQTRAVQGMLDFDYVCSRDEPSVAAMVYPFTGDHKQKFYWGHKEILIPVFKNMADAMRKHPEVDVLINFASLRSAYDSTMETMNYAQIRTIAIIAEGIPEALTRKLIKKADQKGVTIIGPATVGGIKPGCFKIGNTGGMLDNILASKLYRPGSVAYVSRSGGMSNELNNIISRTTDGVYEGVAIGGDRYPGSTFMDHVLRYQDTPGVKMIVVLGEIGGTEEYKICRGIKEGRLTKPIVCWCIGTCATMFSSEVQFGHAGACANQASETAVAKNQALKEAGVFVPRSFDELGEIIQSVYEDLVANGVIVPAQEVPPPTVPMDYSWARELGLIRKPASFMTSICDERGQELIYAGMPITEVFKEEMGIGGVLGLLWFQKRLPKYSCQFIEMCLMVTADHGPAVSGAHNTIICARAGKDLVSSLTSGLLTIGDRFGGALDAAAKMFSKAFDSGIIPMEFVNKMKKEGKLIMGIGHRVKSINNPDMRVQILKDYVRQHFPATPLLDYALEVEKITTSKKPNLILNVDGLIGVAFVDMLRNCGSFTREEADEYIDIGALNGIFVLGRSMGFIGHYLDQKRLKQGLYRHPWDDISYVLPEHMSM

The pIC50 is −log10 of the IC50, conventionally taken in molar units. In the case of `O=C(O)c1sccc1NS(=O)(=O)c1cc(Cl)cc(Cl)c1` [I-362, 3-((3,5-dichlorophenyl)sulfonamido)thiophene-2-carboxylic Acid], the pIC50 was 4.70 to 6.30. Still for that read-out and setting: the figure for `O=C(O)c1c(NS(=O)(=O)c2cc(Cl)cc(Cl)c2)sc2c1CCCC2` [I-363, 2-((3,5-dichlorophenyl)sulfonamido)-4,5,6,7-tetrahydrobenzo[b]thiophene-3-carboxylic Acid] is 4.70 to 6.30; for `Cc1c(-c2ccccc2)ccc(C(=O)O)c1NS(=O)(=O)c1cc(Cl)cc(C(F)(F)F)c1` [I-365, 3-((3-chloro-5-(trifluoromethyl)phenyl)sulfonamido)-2-methyl-[1,1′-biphenyl]-4-carboxylic Acid] it is 4.70 to 6.30.

The compound `O=C(c1c[nH]c(=O)c(S(=O)(=O)Nc2cc(-c3ccccc3)ccc2F)c1)N1CCC1` [I-369, 5-(azetidine-1-carbonyl)-N-(4-fluoro-[1,1′-biphenyl]-3-yl)-2-oxo-1,2-dihydropyridine-3-sulfonamide] had a pIC50 of 4.70 to 6.30. Still for that read-out and setting: in the case of `CN(c1cc(-c2ccccc2)ccc1F)S(=O)(=O)c1cc(Cl)cc(Br)c1O` [I-370, 3-bromo-5-chloro-N-(4-fluoro-[1,1′-biphenyl]-3-yl)-2-hydroxy-N-methylbenzenesulfonamide] it was 4.70 to 6.30. Take `O=C(O)c1ccc(-c2ccccc2)cc1NCc1cc(Cl)cc(Cl)c1` [I-371, 3-((3,5-dichlorobenzyl)amino)-[1,1′-biphenyl]-4-carboxylic Acid]: the pIC50 (read-out: ACL-ADP-Glo (IC50), 3 nM ACL, 15 μM ATP, 3 μM CoA, 300 μM Citrate) is 4.70 to 6.30. Compound `O=S(=O)(Nc1ccc(F)cc1F)c1cc(Cl)cc(-c2nn[nH]n2)c1` [I-373, 3-chloro-N-(2,4-difluorophenyl)-5-(2H-1,2,3,4-tetrazol-5-yl)benzene-1-sulfonamide] gave a pIC50 below 4.70.

With `COc1ccc(-c2ccccc2)cc1NS(=O)(=O)c1cc(C(=O)N2CCC2)cc(Cl)c1OC` [I-374, 5-(azetidine-1-carbonyl)-3-chloro-2-methoxy-N-[4-methoxy-[1,1-biphenyl]-3-yl]benzene-1-sulfonamide], the pIC50 is below 4.70. `O=C(COc1c(Cl)cc(C(=O)N2CCC2)cc1S(=O)(=O)Nc1cc(-c2ccccc2)c(F)cc1F)OCc1ccccc1` [I-375, benzyl 2-(4-(azetidine-1-carbonyl)-2-chloro-6-(N-(4,6-difluoro-[1,1′-biphenyl]-3-yl)sulfamoyl)phenoxy)acetate] showed a pIC50 below 4.70. On the same count and under the same terms, the figure for `O=S(=O)(Nc1cc(-c2ccccc2)c(F)cc1F)c1cccc2ccccc12` [I-376, N-(4,6-difluoro-[1,1 biphenyl]-3-yl)naphthalene-1-sulfonamide] is below 4.70; for `O=S(=O)(Nc1cc(-c2ccccc2)ccc1F)c1cccc2cc[nH]c12` [I-377, N-[4-fluoro-[1,1-biphenyl]-3-yl]-1H-indole-7-sulfonamide] it is below 4.70; for `COc1c(Cl)cc(C(=O)N2CCC2)cc1S(=O)(=O)Nc1cc(-c2ccccc2)c(F)cc1F` [I-378, 5-(azetidine-1-carbonyl)-3-chloro-N-[4,6-difluoro-[1,1-biphenyl]-3-yl]-2-methoxybenzene-1-sulfonamide] it is below 4.70.

Compound `O=C(O)COc1ccccc1S(=O)(=O)Nc1cc(-c2ccccc2)ccc1F` [I-379, 2-(2-(N-(4-fluoro-[1,1′-biphenyl]-3-yl)sulfamoyl)phenoxy)acetic Acid] had a pIC50 below 4.70. On to `COc1ccc(Br)cc1S(=O)(=O)Nc1cc(-c2ccccc2)c(F)cc1F` [I-380, 5-bromo-N-[4,6-difluoro-[1,1-bipheny1]-3-yl]-2-methoxybenzene-1-sulfonamide], for which the pIC50 is below 4.70. The same measure, in the same setting: in the case of `N#Cc1cc(S(=O)(=O)Nc2cc(-c3ccccc3)c(F)cc2F)ccc1F` [I-381, 3-cyano-N-(4,6-difluoro-[1,1′-biphenyl]-3-yl)-4-fluorobenzenesulfonamide] it was below 4.70; in that of `CC(C)(C)OC(=O)n1ccc2cccc(S(=O)(=O)Nc3cc(-c4ccccc4)ccc3F)c21` [I-382, tert-butyl 7-(N-(4-fluoro-[1,1′-biphenyl]-3-yl)sulfamoyl)-1H-indole-1-carboxylate], below 4.70; in that of `O=S(=O)(Nc1cc(-c2ccccc2)c(F)cc1F)c1cccc2c1OCCO2` [I-383, N-[4,6-difluoro-[1,1-biphenyl]-3-yl]-2,3-dihydro-1,4-benzodioxine-5-sulfonamide], below 4.70. As for `COc1ccc(C(=O)N2CCC2)cc1S(=O)(=O)Nc1cc(-c2ccccc2)c(F)cc1F` [I-384, 5-(azetidine-1-carbonyl)-N-[4,6-difluoro-[1,1-biphenyl]-3-yl]-2-methoxybenzene-1-sulfonamide], the pIC50 was below 4.70. Same read-out and setting: in the case of `CS(=O)(=O)c1ccccc1S(=O)(=O)Nc1cc(-c2ccccc2)c(F)cc1F` [I-385, N-[4,6-difluoro-[1,1-biphenyl]-3-yl]-2-methanesulfonylbenzene-1-sulfonamide] it was below 4.70; in that of `O=C(c1cc(Cl)cc(S(=O)(=O)Nc2cc(-c3ccccc3)c(F)cc2F)c1)N1CCC1` [I-386, 3-(azetidine-1-carbonyl)-5-chloro-N-(4,6-difluoro-[1,1′-biphenyl]-3-yl)benzenesulfonamide], below 4.70. Take `CC(C)(C)OC(=O)COc1c(Cl)cc(C(=O)N2CCC2)cc1S(=O)(=O)Nc1cc(-c2ccccc2)c(F)cc1F` [I-387, tert-butyl 2-[4-(azetidine-1-carbonyl)-2-chloro-6-([4,6-difluoro-[1,1-biphenyl]-3-yl]sulfamoyl)phenoxy]acetate]: the pIC50 was below 4.70. `CO[C@@H]1CCN(C(=O)c2cc(Cl)cc(S(=O)(=O)Nc3cc(-c4ccccc4)c(F)cc3F)c2)C1` [I-388, (R)-3-chloro-N-(4,6-difluoro-[1,1′-biphenyl]-3-yl)-5-(3-methoxypyrrolidine-1-carbonyl)benzenesulfonamide] had a pIC50 below 4.70. Regarding `CO[C@H]1CCN(C(=O)c2cc(Cl)cc(S(=O)(=O)Nc3cc(-c4ccccc4)c(F)cc3F)c2)C1` [I-389, (S)-3-chloro-N-(4,6-difluoro-[1,1′-biphenyl]-3-yl)-5-(3-methoxypyrrolidine-1-carbonyl)benzenesulfonamide], the pIC50 was below 4.70.

In turn, `O=S(=O)(Nc1cc(-c2ccccc2)c(F)cc1F)c1cccc2nsnc12` [I-390, N-(4,6-difluoro-[1,1 biphenyl]-3-yl)benzo[c][1,2,5]thiadiazole-4-sulfonamide] showed a pIC50 below 4.70. Same read-out and setting: in the case of `COc1ccc(-c2ccccc2)cc1N(Cc1cc(Cl)cc(Cl)c1O)S(C)(=O)=O` [I-391, N-(3,5-dichloro-2-hydroxybenzyl)-N-(4-methoxy-[1,1′-biphenyl]-3-yl)methanesulfonamide] it was below 4.70; in that of `CS(=O)(=O)c1cc(Cl)cc(S(=O)(=O)Nc2cc(-c3ccccc3)c(F)cc2F)c1` [I-392, 3-chloro-N-(4,6-difluoro-[1,1′-biphenyl]-3-yl)-5-(methylsulfonyl)benzenesulfonamide], below 4.70. `O=S(=O)(Nc1ccc(-c2ccccc2)cc1F)c1cccc2ncoc12` [I-393, N-(3-fluoro-[1,1′-biphenyl]-4-yl)benzo[d] oxazole-7-sulfonamide] gave a pIC50 below 4.70.

`COc1ccc(-c2ccccc2)cc1NS(=O)(=O)c1cc(Cl)cc(Cl)c1F` [I-394, 3,5-dichloro-2-fluoro-N-[4-methoxy-[1,1-biphenyl]-3-yl]benzene-1-sulfonamide] gave a pIC50 below 4.70. Same read-out and setting: the figure for `O=S(=O)(Nc1cc(N2CCNCC2)c(F)cc1F)c1cc(Cl)cc(Cl)c1O` [I-395, 3,5-dichloro-N-(2,4-difluoro-5-(piperazin-1-yl)phenyl)-2-hydroxybenzenesulfonamide] is below 4.70; for `COc1ccc(-c2ccccc2)cc1NS(=O)(=O)c1cccc(C#N)c1` [I-396, 3-cyano-N-(2-methoxy-5-phenylphenyl) benzene-1-sulfonamide] it is below 4.70; for `COc1ccc(-c2ccccc2)cc1N(Cc1ccccc1)S(=O)(=O)c1c(C)c(Cl)cc(Cl)c1OCc1ccccc1` [I-397, N-benzyl-2-(benzyloxy)-3,5-dichloro-N-(4-methoxy-[1,1′-biphenyl]-3-yl)-6-methylbenzenesulfonamide] it is below 4.70. In the case of `COc1ccc(-c2ccccc2)cc1NS(=O)(=O)c1cc(Cl)cc(Cl)c1C(=O)O` [I-398, 2,4-dichloro-6-(N-(4-methoxy-[1,1′-biphenyl]-3-yl)sulfamoyl) Benzoic Acid], the pIC50 was below 4.70. The same measure, in the same setting: in the case of `O=C(O)CCc1cc(Cl)c(O)c(S(=O)(=O)Nc2cc(F)cc(F)c2)c1` [I-399, 3-(3-chloro-5-(N-(3,5-difluorophenyl)sulfamoyl)-4-hydroxyphenyl) Propanoic Acid] it was below 4.70; in that of `COc1ccc(-c2ccccc2)cc1NS(=O)(=O)c1c(C)nn(C)c1Cl` [I-400, 5-chloro-N-(4-methoxy-[1,1′-biphenyl]-3-yl)-1,3-dimethyl-1H-pyrazole-4-sulfonamide], below 4.70; in that of `COc1ccc(-c2ccccc2)cc1N(C)S(=O)(=O)c1cc(Cl)cc(Cl)c1OC` [I-401, 3,5-dichloro-2-methoxy-N-(4-methoxy-[1,1′-biphenyl]-3-yl)-N-methylbenzenesulfonamide], below 4.70. Same read-out and setting: the figure for `COc1ccc(-c2ccccc2)cc1NS(=O)(=O)c1cc(Cl)cc(Cl)c1OC` [I-402, 3,5-dichloro-2-methoxy-N-(4-methoxy-[1,1′-biphenyl]-3-yl)benzenesulfonamide] is below 4.70; for `COc1cc(-c2ccccc2)ccc1NS(=O)(=O)c1cc(Cl)cc(Cl)c1C` [I-403, 3,5-dichloro-N-(3-methoxy-[1,1′-biphenyl]-4-yl)-2-methylbenzenesulfonamide] it is below 4.70; for `COc1ccc(C(=O)O)cc1NS(=O)(=O)c1cc(Cl)cc(Cl)c1O` [I-404, 3-((3,5-dichloro-2-hydroxyphenyl)sulfonamido)-4-methoxybenzoic acid] it is below 4.70. On the same count and under the same terms, the figure for `COc1ccc(-c2ccccc2)cc1NS(=O)(=O)c1cc(Cl)cc(Cl)c1` [I-405, 3,5-dichloro-N-(4-methoxy-[1,1′-biphenyl]-3-yl)benzenesulfonamide] is below 4.70; for `COc1ccc(-c2ccccc2)cc1NS(=O)(=O)c1cccc(C(=O)O)c1` [I-406, 3-(N-(4-methoxy-[1,1′-biphenyl]-3-yl)sulfamoyl)benzoic acid] it is below 4.70.
